Assay results: patent US6835720B2, “Compounds having antiviral activity” (Nissin Food Products Co., Ltd., priority 1996, dated 2004)

Key:
[1] = test system: Herpes simplex II virus (HSVII); assay: Plaque reduction assay, Herpes simplex II virus; assay type: cell-based
Experimental: (§1) Antiviral activity against human Parainfluenza virus, Respiratory syncytial virus (RSV) and Herpes simplex II virus (HSVII) was determined by the plaque reduction assay, while that against Feline immunodeficiency virus (FIV) and Feline leukemia virus (FeLV) by the reverse transcriptase assay and ELISA, respectively.
(§2) Each virus was obtained from ATCC. As host cells, VERO cells were used for Parainfluenza virus, and HEP2 cells for other viruses.
(§3) To fibroblasts growing in a T150 flask were added virus-infected cells, and the cells were incubated until they reached 60-80% infection. Cells were trypsinized, recovered and used as the virus stock. As the cell culture medium was used E-MEM containing 2-5% FBS, 100 U/ml Penicillin, 2.5 μg/ml Aniphotericin and 10 μg/ml Gentamycin.
(§4) Compound related to Example 29 was appropriately diluted to the concentrations of 500, 100, 50, 10 and 5 μg/ml with the culture medium or methyl cellulose. As the reference drug for HSV II was used Acyclovir. […]
(§5) Cells were cultured at 36-38° C. under the 5-7% CO2 atmosphere, and examined for the appearance of plaques under microscope. […] Number of plaques counted in the sample well was compared with that in the virus control well, and the decrease in the number of plaques was used to express the antiviral activity.

AIDS virus (HIV-1, IIIb) = assay type: cell-based; conditions: HIV-1 IIIb in H9 cells, p24 in culture supernatant by ELISA on the 6th day
Experimental: (§6) Samples of various concentrations (25 μl) are distributed into a 24-well microplate, immediately added with human T cells (H9 cell line, 1.2×10^5/ml) (1 ml), covered, and incubated at 37° C. for 1 h. Then, AIDS virus (HIV-1, IIIb, 100 TCID 50) (25 μl) is added to each well and thoroughly mixed, covered again, and incubated under the CO2 atmosphere at 37° C. for 3 days. On the fourth day, aliquots (200 μl) of the culture medium from each well are transferred into a fresh microplate. The growth medium (500 μl) is added to each well, and further incubated for 2 days.
(§7) On the 6th day, aliquots (90 μl) of the culture supernatant are withdrawn, and assayed the amount of p24, a constituent of HIV-1, by ELISA method using the anti-p24 antibody to assess the growth of said virus. Also, using the remaining cell culture suspension (100 μl), viable cells are counted by the MTT method. Experimental values are expressed as the ratios (%) to the negative control value (measured using the solvent to dissolve test compounds as the sample) to represent the anti-HIV activity and cytotoxicity. Then, for the unified representation of the anti-HIV activity and cytotoxicity, the concentrations of test compounds at their 50% values are obtained from the activity-concentration curves and the cytotoxicity-concentration, and represented as IC50 and CC50, respectively.

human plasma = assay: Anti-coagulation activity in human plasma; conditions: calcium chloride, 37° C. for 30 min, judged with the naked eye
[2] = test system: human T cells (H9 cell line); assay: Cytotoxicity, viable cells counted by the MTT method; assay type: cell-based
Experimental: as §6, §7

mice = assay: Toxicity study, intravenous administration to mice; assay type: in vivo; conditions: intravenously administered
Experimental: Compounds were intravenously administered to mice, and LD50s (mg/kg) were determined.

[3] = test system: Respiratory syncytial virus (RSV); assay: Plaque reduction assay, Respiratory syncytial virus; assay type: cell-based; conditions: HEP2 cells
Experimental: as §1, §2, §3, §4, §5

[4] = test system: human Parainfluenza virus; assay: Plaque reduction assay, Parainfluenza virus; assay type: cell-based; conditions: VERO cells
Experimental: as §1, §2, §3, §4, §5

[5] = test system: Feline leukemia virus (FeLV); assay: FeLV antigen ELISA, Feline leukemia virus; assay type: cell-based
Experimental: as §1
(§8) Each virus was obtained from ATCC. FIV was cultured with CRFK cells in Eagle's balanced salt medium containing 10% FBS, and the supernatant was used as the virus stock. As FeLV was used ATCC VR-717.
(§9) Compound related to Example 29 was diluted with the medium to similar concentrations described above.
(§10) For each single strain of virus, the assay was performed in the following combinations of conditions.
(§11) After CRFL cells were cultured in monolayer in 96-well microplates, the supernatant was discarded. […]
(§12) Using supernatants as the sample from the cell control well, the virus control well and the test well, the reverse transcriptase of FIV or FeLV antigen contained therein were quantitated using assay kits from Amersham LIFESCIENCE and Synbiotics, respectively. Anti-viral activity was expressed as that ratio (%) of the value of the test well to that of the virus control well after both values were subtracted with the value of the cell control well, respectively.

[6] = test system: Feline immunodeficiency virus (FIV); assay: Reverse transcriptase assay, Feline immunodeficiency virus; assay type: cell-based; conditions: CRFK cells
Experimental: as §1, §8, §9, §10, §11, §12

Molecule | IC50 (AIDS virus (HIV-1, IIIb)) | Minimum concentration exhibiting anticoagulant action (human plasma) | CC50 [2] | LD50 (mice) | other results
Nc1nc2c(ncn2COCCO)c(=O)[nH]1 [Acyclovir, reference compound] | – | – | – | – | IC50 ([1]; HEp-2, HEP2 cells): 21.6 µM
CCCCCCCCCCCCCCCCCCCCCCOC[C@H](CO[C@]1(C(=O)[O-])C[C@H](OS(=O)(=O)[O-])[C@@H](NC(C)=O)[C@H]([C@H](OS(=O)(=O)[O-])[C@@H](COS(=O)(=O)[O-])OS(=O)(=O)[O-])O1)OCCCCCCCCCCCCCCCCCCCCCC.[Na+].[Na+].[Na+].[Na+].[Na+] [Example 12, 3-O-[Sodium{5-acetamido-3,5-dideoxy-4,7,8,9-tetra-O-(sodiumoxysulfonyl)-D-glycero-α-D-galacto-2-nonulopyranosyl}onate]-1,2-di-O-docosyl-Sn-glycerol] | 0.8 µM | 900 µM | > 200 µM | 2000 mg/kg | –
CCCCCCCCCCCCCCCCCCCCCCOCC(COC1(C(=O)[O-])CC(OS(=O)(=O)[O-])C(NC(C)=O)C(C(OS(=O)(=O)[O-])C(COS(=O)(=O)[O-])OS(=O)(=O)[O-])O1)OCCCCCCCCCCCCCCCCCCCCCC.[Na+].[Na+].[Na+].[Na+].[Na+] [Example 13, 3-O-[Sodium{5-acetamido-3,5-dideoxy-4,7,8,9-tetra-O-(sodiumoxysulfonyl)-D-glycero-β-D-galacto-2-nonulopyranosyl}onate]-1,2-di-O-docosyl-Sn-glycerol] | 1.6 µM | 1200 µM | > 200 µM | 2000 mg/kg | –
CCCCCCCCCCCCCCCCCCCCCCOCC(C)(COCCCCCCCCCCCCCCCCCCCCCC)COC1(C(=O)[O-])CC(OS(=O)(=O)[O-])C(NC(C)=O)C(C(OS(=O)(=O)[O-])C(COS(=O)(=O)[O-])OS(=O)(=O)[O-])O1.[Na+].[Na+].[Na+].[Na+].[Na+] [Example 29, Sodium[2,2-bis(docosyloxymethyl)propyl 5-acetamido-3,5-dideoxy-4,7,8,9-tetra-O-(sodiumoxysulfonyl)-D-glycero-α-D-galacto-2-nonulopyranosid]onate] | 1.6 µM | 900 µM | > 20 µM | 2000 mg/kg | IC50 [3]: 5.1 µM; IC50 [4]: 37.6 µM; IC50 [5]: 58.3 µM; IC50 [6]: 4.5 µM; IC50 ([1]; HEP2 cells): 45.2 µM
CCCCCCCCCCCCCCCCCCCCCC(=O)OCC(COC1(C(=O)O)CC(OS(=O)(=O)O)C(NC(C)=O)C(C(OS(=O)(=O)O)C(COS(=O)(=O)O)OS(=O)(=O)O)O1)OC(=O)CCCCCCCCCCCCCCCCCCCCC [Example 38, 3-O-[Sodium{5-acetamido-3,5-dideoxy-4,7,8,9-tretra-O-(sodiumoxysulfonyl)-D-glycero-α-D-galacto-2-nonulopyranosyl}onate]-1,2-di-O-docosanoyl-Sn-glycerol] | 2.5 µM | – | > 200 µM | – | –
CCCCCCCCCCCCCCCCCCCCCCOCC(COC1(C(=O)O)CC(OS(=O)(=O)O)C(OS(=O)(=O)O)C(C(OS(=O)(=O)O)C(COS(=O)(=O)O)OS(=O)(=O)O)O1)OCCCCCCCCCCCCCCCCCCCCCC [Example 41, 3-O-[Sodium{3-deoxy-4,5,7,8,9-penta-O-(sodiumoxysulfonyl)-D-glycero-α-D-galacto-2-nonulopyranosyl}onate]-1,2-di-O-docosyl-Sn-glycerol] | 4 µM | – | > 200 µM | – | –
CCCCCCCCCCCCCCCCCCCCCCOCC(CC)(COCCCCCCCCCCCCCCCCCCCCCC)COC1(C(=O)O)CC(OS(=O)(=O)O)C(NC(C)=O)C(C(OS(=O)(=O)O)C(COS(=O)(=O)O)OS(=O)(=O)O)O1 [Example 50, Sodium[2,2-bis(docosyloxymethyl)butyl 5-acetamido-3,5-dideoxy-4,7,8,9-tetra-O-(sodiumoxysulfonyl)-D-glycero-α-D-galacto-2-nonulopyranosid)onate] | 1.1 µM | – | > 200 µM | – | –
Dextran sulfate [reference compound] | – | 0.5 µM | – | – | –
